Consider 2 molecules from ChEMBL document CHEMBL1125738, “A ring-enlarged oxetanocin A analogue as an inhibitor of HIV infectivity” (1991).

The subject of the experiment is Human immunodeficiency virus 1. In words: Cytopathogenic effect was evaluated against Human immunovirus-1 (HIV-1). It counts as functional. For orientation: Cytopathic effects are the visible damage that an infection or toxin causes in cultured cells.

`Nc1ncnc2c1ncn2[C@H]1C[C@H](CO)[C@@H](CO)O1`: the Protective dose turned out to be 10 µM.

`Nc1ncnc2c1ncn2[C@@H]1O[C@H](CO)[C@H]1CO` gave a Protective dose of 100 µM.
